Experimental data taken from patent publication US20240285634A1, “COMPOUND AND METHOD FOR TREATING CHEMOTHERAPY-ASSOCIATED GASTROINTESTINAL SIDE EFFECTS” (ONQUALITY PHARMACEUTICALS CHINA LTD., priority 2021, published 2024).
Structures can show the parent of a compound that is named as a salt.

How the values were obtained:
[1] = system: Chemotherapeutic agent-caused diarrhea models of Balb/c mice; test: Relieving effect on diarrhea caused by a chemotherapeutic agent (Examples 1-201); type: in vivo; details: for diarrhea gradings compared with the chemotherapeutic agent group: administered before the chemotherapeutic agent, Table 3 and FIG. 2
Excerpt: Construction of mouse animal models: Chemotherapeutic agent-caused diarrhea models of Balb/c mice were constructed according to the administration mode and frequency of the chemotherapeutic agent as shown in Table 3. After administration for several days, mice developed different extents of diarrhea symptoms (as shown in FIG. 1), which were similar to the conditions in human. Thus, chemotherapeutic agent-caused diarrhea models of mice are very good models to mimic diarrhea in human caused by the chemotherapeutic agent.
Balb/c mice were fed for 1 week, and then divided into groups. The experiment was divided into a control group, a chemotherapeutic agent group, and a group of the compound as shown in Formula I, each of which comprised 10 mice, to perform the administration experiment, for which the administration dosage, mode, time and frequency were shown in Table 3. The control group: being injected or intragastrically administered with the same solvent as that used in the group of the compound as shown in Formula I (the injection mode and time were shown in Table 3), and then being injected or intragastrically administered with the same solvent as that used in the chemotherapeutic agent group (the administration mode was shown in Table 3); the chemotherapeutic agent group: being injected or intragastrically administered with the same solvent as that used in the group of the compound as shown in Formula I (the administration mode and time were shown in Table 3), and then being injected or intragastrically administered with the chemotherapeutic agent (the type, administration mode and dosage were shown in Table 3); the group of the compound as shown in Formula I: being injected or intragastrically administered with the compound as shown in Formula I (the administration mode and time were shown in Table 3), and then being administered with the chemotherapeutic agent (the administration mode and dosage were shown in Table 3).
(§1) The scoring of diarrhea can refer to the method of Akinobu Kurita (Cancer Chemother Pharmacol 2000; 46:211-20.), Grade 0: normal feces; Grade 1: mild diarrhea, the stools is slightly wet and soft; Grade 2: moderate diarrhea, loose stools and mild perianal contamination; Grade 3: severe diarrhea, watery stools and accompanied by severe perianal staining (see FIG. 1). It is regarded as effective remission when the diarrhea grading of mice in the group of the compound as shown in Formula I is reduced compared with the average diarrhea grading of mice in the chemotherapeutic agent group.
(§2) The diarrhea grading of mice was observed and recorded every day. At the end of the experiment, the number of mice in the group of the compound as shown in Formula I whose diarrhea grading was lower than that of mice in the chemotherapeutic agent group was recorded. Table 3 lists various animal experiment combinations of chemotherapeutic agents and the compound as shown in Formula I, as well as the corresponding experimental results. (Relative remission rate %=the number of mice in the group of the compound as shown in Formula I whose diarrhea has been effectively relieved/the total number of mice in the group of the compound as shown in Formula I*100%. The establishment rate of diarrhea model in the chemotherapeutic agent group was 50%-70%, that is, about 5-7 of 10 mice developed diarrhea during the experiment, and there were cases of individual mice death or not developing diarrhea.)

[2] = system: Balb/c mice, diarrhea caused by continuous administration of a chemotherapeutic agent; test: Relieving effect on diarrhea caused by the continuous administration of a chemotherapeutic agent (Examples 365-384); type: in vivo
Excerpt: Balb/c mice were fed for 1 week, and then divided into groups. The experiment was divided into a control group, a chemotherapeutic agent group, and a group of the compound as shown in Formula I, each of which comprised 10 mice, to perform the administration experiment, for which the administration dosage, mode, time and frequency were shown in Table 5. The control group: being injected or intragastrically administered with the same solvent as that used in the group of the compound as shown in Formula I (the administration mode and time were shown in Table 5), and then being injected or intragastrically administered with the same solvent as that used in the chemotherapeutic agent group (the administration mode was shown in Table 5); the chemotherapeutic agent group: being injected or intragastrically administered with the same solvent as that used in the group of the compound as shown in Formula I (the administration mode and time were shown in Table 5), and then being injected or intragastrically administered with the chemotherapeutic agent (the type, administration mode, time and dosage were shown in Table 5); the group of the compound as shown in Formula I: being injected or intragastrically administered with the compound as shown in Formula I (the administration mode and time were shown in Table 5), and then being administered with the chemotherapeutic agent (the type, administration mode, time and dosage were shown in Table 5).
as §1, with “0):” for “0:”
as §2, with “5” for “3”, “50%-80%,” for “50%-70%,”, “5-8” for “5-7”

[3] = continuous administration of the chemotherapeutic agent for 7 days or less
[4] = continuous administration of the chemotherapeutic agent for less than 7 days

In the case of O=C1NCC2(CCCCC2)n2c1cc1cnc(Nc3ccc(N4CCC(N5CCOCC5)CC4)cn3)nc12 [Compound III], the Relative remission rate ([1]; Ex 89, Oxaliplatin 17.5 mg/kg intravenous single, compound 100 mg/kg intraperitoneal single 1 h before, cycle 8 days) is reported as 40%, the Relative remission rate ([1]; Ex 90, Oxaliplatin 17.5 mg/kg intravenous single, compound 100 mg/kg intraperitoneal single 4 h before, cycle 8 days) is reported as 70% and the Relative remission rate ([1]; Ex 91, Oxaliplatin 17.5 mg/kg intravenous single, compound 100 mg/kg intraperitoneal single 8 h before, cycle 8 days) is reported as 40%. It also gave a Relative remission rate ([1]; Ex 178, Fluorouracil 50 + oxaliplatin 5 + irinotecan 50 + tetrahydrofolic acid 90 mg/kg intravenous single, compound 150 mg/kg oral single 0.5 h before, cycle 7 days) of 30%, a Relative remission rate ([1]; Ex 179, Fluorouracil 50 + oxaliplatin 5 + irinotecan 50 + tetrahydrofolic acid 90 mg/kg intravenous single, compound 150 mg/kg oral single 4 h before, cycle 7 days) of 50% and a Relative remission rate ([1]; Ex 180, Fluorouracil 50 + oxaliplatin 5 + irinotecan 50 + tetrahydrofolic acid 90 mg/kg intravenous single, compound 150 mg/kg oral single 8 h before, cycle 7 days) of 40%. For the same compound, the Relative remission rate ([1]; Ex 181, Fluorouracil 50 + oxaliplatin 5 + irinotecan 50 + tetrahydrofolic acid 90 mg/kg intravenous single, compound 150 mg/kg oral single 12 h before, cycle 7 days) was 40%, the Relative remission rate ([1]; Ex 182, Fluorouracil 50 + oxaliplatin 5 + irinotecan 50 + tetrahydrofolic acid 90 mg/kg intravenous single, compound 150 mg/kg oral single 24 h before, cycle 7 days) was 20% and the Relative remission rate ([1]; Ex 199, Etoposide 60 + carboplatin 5 mg/kg intraperitoneal single, compound 100 mg/kg oral single 0.5 h before, cycle 10 days) was 60%. For the same compound, the “diarrhea gradings compared with the chemotherapeutic agent group” value [1] was “relieved to different degrees”, the “Relative remission rate (%)” value ([2]; Example 382, Fluorouracil (5-Fu) intravenous injection 70 mg/kg once a day, for 3 days, compound subcutaneous injection 100 mg/kg once a day, for 3 days, 12 h before chemotherapeutic agent, cycle 8 days) was 20% and the “relieving effects on diarrhea” value [2, 3] was “have relieving effects”. The “relieving effects on diarrhea” value [2, 4] was “significant”.
With CC(C)N1CCN(c2ccc(Nc3ncc4cc5n(c4n3)C3(CCCCC3)CNC5=O)nc2)CC1 [Compound IV, Lerociclib] the Relative remission rate ([1]; Ex 112, Irinotecan (CPT-11) 240 mg/kg intraperitoneal single, compound 100 mg/kg intraperitoneal single 0.5 h before, cycle 11 days) was 60%, the Relative remission rate ([1]; Ex 113, Irinotecan (CPT-11) 240 mg/kg intraperitoneal single, compound 100 mg/kg intraperitoneal single 4 h before, cycle 11 days) was 50% and the Relative remission rate ([1]; Ex 114, Irinotecan (CPT-11) 240 mg/kg intraperitoneal single, compound 100 mg/kg intraperitoneal single 8 h before, cycle 11 days) was 30%. The Relative remission rate ([1]; Ex 135, Fluorouracil 100 + irinotecan 200 mg/kg intraperitoneal single, compound 100 mg/kg oral single 0.5 h before, cycle 8 days) was 30%, the Relative remission rate ([1]; Ex 136, Fluorouracil 100 + irinotecan 200 mg/kg intraperitoneal single, compound 100 mg/kg oral single 12 h before, cycle 8 days) was 50% and the Relative remission rate ([1]; Ex 137, Fluorouracil 100 + irinotecan 200 mg/kg intraperitoneal single, compound 100 mg/kg oral single 24 h before, cycle 8 days) was 40%. For the same compound, the Relative remission rate ([1]; Ex 183, Fluorouracil 50 + oxaliplatin 5 + irinotecan 50 + tetrahydrofolic acid 90 mg/kg intravenous single, compound 100 mg/kg intraperitoneal single 0.5 h before, cycle 7 days) was 80%, the Relative remission rate ([1]; Ex 184, Fluorouracil 50 + oxaliplatin 5 + irinotecan 50 + tetrahydrofolic acid 90 mg/kg intravenous single, compound 100 mg/kg intraperitoneal single 4 h before, cycle 7 days) was 60% and the Relative remission rate ([1]; Ex 185, Fluorouracil 50 + oxaliplatin 5 + irinotecan 50 + tetrahydrofolic acid 90 mg/kg intravenous single, compound 100 mg/kg intraperitoneal single 8 h before, cycle 7 days) was 50%. It also gave a Relative remission rate ([1]; Ex 186, Fluorouracil 50 + oxaliplatin 5 + irinotecan 50 + tetrahydrofolic acid 90 mg/kg intravenous single, compound 100 mg/kg intraperitoneal single 12 h before, cycle 7 days) of 50%, a Relative remission rate ([1]; Ex 187, Fluorouracil 50 + oxaliplatin 5 + irinotecan 50 + tetrahydrofolic acid 90 mg/kg intravenous single, compound 100 mg/kg intraperitoneal single 24 h before, cycle 7 days) of 40% and a Relative remission rate ([1]; Ex 195, Topotecan 20 mg/kg intravenous single, compound 100 mg/kg oral single 0.5 h before, cycle 14 days) of 60%. The “diarrhea gradings compared with the chemotherapeutic agent group” value [1] was “relieved to different degrees”, the “Relative remission rate (%)” value ([2]; Example 380, Fluorouracil (5-Fu) intraperitoneal injection 70 mg/kg once a day, for 3 days, compound oral administration 100 mg/kg once a day, for 3 days, 4 h before chemotherapeutic agent, cycle 8 days) was 30% and the “relieving effects on diarrhea” value [2, 3] was “have relieving effects”. For the same compound, the “relieving effects on diarrhea” value [2, 4] was “significant”.
Work on CN1CCN(c2ccc(Nc3ncc4cc5n(c4n3)C3(CCCCC3)CNC5=O)nc2)CC1 [Compound I hydrochloride, Trilaciclib dihydrochloride] yielded a Relative remission rate ([1]; Ex 132, Fluorouracil 100 + irinotecan 200 mg/kg intraperitoneal single, compound 150 mg/kg intraperitoneal single 0.5 h before, cycle 8 days) of 30%, a Relative remission rate ([1]; Ex 133, Fluorouracil 100 + irinotecan 200 mg/kg intraperitoneal single, compound 150 mg/kg intraperitoneal single 6 h before, cycle 8 days) of 60% and a Relative remission rate ([1]; Ex 134, Fluorouracil 100 + irinotecan 200 mg/kg intraperitoneal single, compound 150 mg/kg intraperitoneal single 12 h before, cycle 8 days) of 50%. For the same compound, the Relative remission rate ([1]; Ex 161, Fluorouracil 50 + oxaliplatin 5 + irinotecan 50 + tetrahydrofolic acid 90 mg/kg intraperitoneal single, compound 150 mg/kg intraperitoneal single 0.5 h before, cycle 7 days) was 70%, the Relative remission rate ([1]; Ex 162, Fluorouracil 50 + oxaliplatin 5 + irinotecan 50 + tetrahydrofolic acid 90 mg/kg intraperitoneal single, compound 150 mg/kg intraperitoneal single 12 h before, cycle 7 days) was 40% and the Relative remission rate ([1]; Ex 194, Topotecan 10 mg/kg intraperitoneal single, compound 100 mg/kg oral single 4 h before, cycle 14 days) was 50%. For the same compound, the Relative remission rate ([1]; Ex 200, Gemcitabine and carboplatin 120 mg/kg intraperitoneal single, compound 100 mg/kg oral single 4 h before, cycle 8 days) was 70%, the “Relative remission rate (%)” value ([2]; Example 373, Fluorouracil (5-Fu) intraperitoneal injection 70 mg/kg once a day for 5 days, compound intraperitoneal injection 150 mg/kg single, 2 h before chemotherapeutic agent, cycle 9 days) was 60% and the “Relative remission rate (%)” value ([2]; Example 374, Fluorouracil (5-Fu) intraperitoneal injection 70 mg/kg once a day for 5 days, compound intraperitoneal injection 150 mg/kg single, 4 h before chemotherapeutic agent, cycle 9 days) was 30%. For the same compound, the “Relative remission rate (%)” value ([2]; Example 375, Fluorouracil (5-Fu) intraperitoneal injection 70 mg/kg once a day for 5 days, compound intraperitoneal injection 150 mg/kg single, 8 h before chemotherapeutic agent, cycle 9 days) was 10%.
